The subject of assay [1] is papillary muscle preparation. In words: Isolated, blood-perfused papillary muscle preparation, developed tension (Table 1). The settings on record: Canis lupus familiaris, close-arterial injection, read-out: Papillary muscle preparation, % increase in developed tension; for activation at 0.1 mg: dose 100 μg; for activation at 0.3 mg: dose 300 μg; for activation at 0.03 mg: dose 30 μg. Set-up: species or system Mongrel dogs. As for the experimental part:
Mongrel dogs of either sex weighting 7.5-10 kg were anesthetized with sodium pentobarbital (30 mg/kg, i.v.). Each animal was given an intravenous dose of sodium heparin (500 units/kg), thereafter, the heart was removed and placed in cold Tyrode solution. The isolated and cross-circulated right atrium and papillary muscle preparations were arranged for perfusion from a donor dog as follows. The donor dog was also anesthetized with sodium pentobarbital (30 mg/kg, i.v.); heparin (500 units/kg) was given intravenously immediately before the perfusion began. (a) The isolated, blood-perfused papillary muscle preparation. The anterior septal artery was dissected and cannulated with polyethylene tubing. The tendinous end of the papillary muscle was connected to a strain-gauge transducer by a fine silk thread and the muscles were under about 2 g of resting tension. The papillary muscle preparation was electrically driven at a constant frequency of 120/min with rectangular pulses of 1-3 V and 5 msec duration. The preparation of the blood-perfused papillary muscle has been described in detail by Endoh and Hashimoto Am. J. Physiol, 218, 1459-1463 (1970). Each preparation was perfused with the arterial blood from the carotid artery of the donor dog at a constant perfusion pressure of 100 mmHg by means of a peristaltic pump. The venous effluent from the preparations was collected in a reservoir and returned to the donor dog through the jugular vein. Test compounds used in these experiments were dissolved in vehicle solution and were injected closearterially to the preparations. The effects of each compound on the developed tension and sinuo rate were evaluated as a percentage change in values determined before and after administration of the compound. In Table 1 are shown such changes in terms of the percentage increase after administration.

In assay [2] the test system is right atrium preparation. In words: Isolated, blood-perfused right atrium preparation, sinus rate (Table 1). Also on record: species or system Mongrel dogs. Conditions: Canis lupus familiaris, close-arterial injection, read-out: Right atrium preparation, % increase in sinus rate; for activation at 0.1 mg: dose 100 μg; for activation at 0.3 mg: dose 300 μg; for activation at 0.03 mg: dose 30 μg. On the procedure:
Mongrel dogs of either sex weighting 7.5-10 kg were anesthetized with sodium pentobarbital (30 mg/kg, i.v.). Each animal was given an intravenous dose of sodium heparin (500 units/kg), thereafter, the heart was removed and placed in cold Tyrode solution. The isolated and cross-circulated right atrium and papillary muscle preparations were arranged for perfusion from a donor dog as follows. The donor dog was also anesthetized with sodium pentobarbital (30 mg/kg, i.v.); heparin (500 units/kg) was given intravenously immediately before the perfusion began. (b) The isolated, blood-perfused right atrium preparation. The sinus node artery was cannulated at its origin in the right coronary artery. A right atrial electrogram was obtained from bipolar electrodes which were placed in close proximity to the sinoatrial node. The sinus rate was recorded by a cardiotachometer triggered by the right atrial electrogram. The details of the bloodperfused right atrium preparation have been described by Chiba et al. (Tohoku J. exp. Med., 107, 101-102 (1972) and Kubota and Hashimoto (Naunyn-Schmiedeberg's Arch. Pharmacol., 278, 135-150 (1973)). Each preparation was perfused with the arterial blood from the carotid artery of the donor dog at a constant perfusion pressure of 100 mmHg by means of a peristaltic pump. The venous effluent from the preparations was collected in a reservoir and returned to the donor dog through the jugular vein. Test compounds used in these experiments were dissolved in vehicle solution and were injected closearterially to the preparations. The effects of each compound on the developed tension and sinuo rate were evaluated as a percentage change in values determined before and after administration of the compound. In Table 1 are shown such changes in terms of the percentage increase after administration.

Assay [3] deals with anesthetized open-chest dogs. In words: Cardiovascular effect in anesthetized open-chest dogs (Table 2). In kind it is in vivo, Mongrel dogs. The settings on record: femoral vein; for change in vivo at 0.03 mg/kg / change in vivo at 0.1 mg/kg / change in vivo at 0.3 mg/kg / change in vivo at 0.01 mg/kg: Canis lupus familiaris, iv. As for the experimental part: Mongrel dogs of either sex weighing 9-15 kg were anesthetized with sodium pentobarbital (30 mg/kg, i.v.). The heart was exposed by thoractomy by the left fifth intercostal incision under artificial respiration. Aortic flow was measured by the probe of electromagnetic flowmeter placed around the ascending aorta. Myocardial contractility was measured by the maximal rate of rise of left ventricular pressure which was recorded from a needle inserted into the ventricular cavity. The systemic blood pressure was measured with a pressure transducer by means of a polyethylene cannular inserted into the femoral artery. The heart rate was recorded by a cardiotrachometer triggered by R wave of electrocargiogram (Lead II). Test compounds were dissolved in vehicle solution and were injected into the femoral vein. The effects of each compound on the cardiac contractility and aortic flow were evaluated as a percentage change in values determined before and after administration of the compound. In Table 2 are shown such changes in terms of the percentage increase after administration.

The mark [4] stands for this setting: 0.03 mg/kg, read-out: Increase in aortic flow (%).
Where [5] appears, read: 0.03 mg/kg, read-out: Increase in cardiac contractility (%).
Where [6] appears, read: 0.1 mg/kg, read-out: Increase in aortic flow (%).
Setting [7] is: 0.1 mg/kg, read-out: Increase in cardiac contractility (%).
[8] abbreviates: 0.3 mg/kg, read-out: Increase in aortic flow (%).
The mark [9] stands for this setting: 0.3 mg/kg, read-out: Increase in cardiac contractility (%).

Counter-ions that a name gives are not always drawn. Like-named read-outs stand apart in the source and are kept apart here.

For `COc1cc(CN)ccc1CCc1ccc(C2=NCCN2)cc1` [Compound 20, 2-{4-[2-(4-Aminomethyl-2-methoxyphenyl)ethyl]phenyl}imidazoline dihydrochloride], the results for the activation at 0.1 mg in assay [1] and in assay [2] were 72.2% and 26.8%, respectively. Moreover, the activation at 0.3 mg in assay [1] was determined as 104%; in assay [2], 45.7%. Moreover, the “% decrease in aortic flow (in parentheses)” value (“% decrease in aortic flow” for short) in assay [3] (0.03 mg/kg) is given as -1.1%. For the same compound, the “% decrease in cardiac contractility (in parentheses)” value (“% decrease in cardiac contractility” below) in assay [3] (0.03 mg/kg) is recorded as -7.8%. The change in vivo at 0.03 mg/kg in assay [3] (setting [4]) came out at 7.9%; in assay [3] (setting [5]) it was 78.6%.
Regarding `N=C(NCCc1ccccn1)c1ccc(CCc2ccc(CN)cc2)cc1` [Compound 6, 4-[2-(4-Aminomethylphenyl)ethyl]-N-[2-(2-pyridyl)ethyl]benzamidine trihydrochloride], the activation at 0.1 mg amounted to 57.7% in assay [1] and 7.5% in assay [2]. Moreover, the activation at 0.3 mg in assay [1] came to 93.5%; in assay [2], 18.3%. Further, the results for the change in vivo at 0.03 mg/kg in assay [3] (setting [4]) and in assay [3] (setting [5]) were 1.8% and 5.2%, respectively. The change in vivo at 0.1 mg/kg was 6.5% in assay [3] (setting [6]) and 18% in assay [3] (setting [7]).
As for `CN=C(NC)c1ccc(CCc2ccc(CN)cc2OC)cc1` [Compound 17, 4-[2-(4-Aminomethyl-2-methoxyphenyl)ethyl]-N,N'-dimethylbenzamidine dihydrochloride], the activation at 0.1 mg in assay [1] was determined as 76.5%; in assay [2], 14.3%. The figures for the activation at 0.3 mg in assay [1] and in assay [2] were 110% and 20.3%, respectively. Further, the values for the change in vivo at 0.03 mg/kg in assay [3] (setting [4]) and in assay [3] (setting [5]) were 4.7% and 13.5%, respectively. In addition, the results for the change in vivo at 0.1 mg/kg in assay [3] (setting [6]) and in assay [3] (setting [7]) were 17% and 76.5%, respectively.
With `COc1cc(CN)ccc1CCc1ccc(C(=N)NCCc2ccccn2)cc1.Cl.Cl.Cl` [Compound 19, 4-[2-(4-Aminomethyl-2-methoxyphenyl)ethyl]-N-[2-(2-pyridyl)ethyl]benzamidine trihydrochloride], the activation at 0.1 mg came to 72.4% in assay [1] and 21.9% in assay [2]. In addition, the activation at 0.3 mg in assay [1] stood at 108%; in assay [2] it was 35.8%. The “% decrease in aortic flow” value in assay [3] (0.3 mg/kg) was -1.2%. For the same compound, in assay [3] (0.3 mg/kg), the “% decrease in cardiac contractility” value is listed as -7.1%. Moreover, the change in vivo at 0.1 mg/kg in assay [3] (setting [6]) is 9.2%; in assay [3] (setting [7]), 20%. For the same compound, the results for the change in vivo at 0.3 mg/kg in assay [3] (setting [8]) and in assay [3] (setting [9]) were 11.9% and 129%, respectively.
For `CNC(=N)c1ccc(CCc2ccc(CN)cc2[N+](=O)[O-])cc1` [Compound 13, N-Methyl-4-[2-(4-aminomethyl-2-nitrophenyl)ethyl]benzamidine dihydrochloride], the activation at 0.03 mg was 64.2% in assay [1] and 32.3% in assay [2]. Further, the activation at 0.1 mg stood at 95.5% in assay [1] and 35.9% in assay [2]. Further, the results for the change in vivo at 0.03 mg/kg in assay [3] (setting [4]) and in assay [3] (setting [5]) were 5.7% and 29%, respectively. For the same compound, the change in vivo at 0.1 mg/kg was found to be 12.1% in assay [3] (setting [6]) and 66.7% in assay [3] (setting [7]).
For the compound `CNC(=N)c1ccc(CCc2ccc(CN)cc2OC)cc1` [Compound 3, 4-[2-(4-Aminomethyl-2-methoxyphenyl)ethyl]-N-methylbenzamidine dihydrochloride], the values for the activation at 0.03 mg in assay [1] and in assay [2] were 73.3% and 17.9%, respectively. In addition, the activation at 0.1 mg stood at 115% in assay [1] and 32.5% in assay [2]. The change in vivo at 0.01 mg/kg in assay [3] (read-out: Increase in aortic flow (%)) was 4.1%; in assay [3] (read-out: Increase in cardiac contractility (%)), 14%. Moreover, the results for the change in vivo at 0.03 mg/kg in assay [3] (setting [4]) and in assay [3] (setting [5]) were 21.7% and 24.6%, respectively.
In the case of `NCc1ccc(CCc2ccc(C3=NCCN3)cc2)cc1` [Compound 15, 2-{4-[2-(4-Aminomethylphenyl)ethyl]phenyl}imidazoline dihydrochloride], the values for the activation at 0.03 mg in assay [1] and in assay [2] were 49.2% and 22.8%, respectively. Moreover, the activation at 0.1 mg in assay [1] was 100%; in assay [2], 34.7%. For the same compound, the change in vivo at 0.1 mg/kg came to 5.9% in assay [3] (setting [6]) and 25% in assay [3] (setting [7]). The change in vivo at 0.3 mg/kg is 10% in assay [3] (setting [8]) and 56.5% in assay [3] (setting [9]).
For the compound `CNC(=N)c1ccc(CCc2ccc(CN)cc2)cc1` [Compound 1, 4-[2-(4-aminomethylphenyl)ethyl]-N-methylbenzamidine dihydrochloride], the activation at 0.03 mg in assay [1] is 44.1%; in assay [2], 26.2%. Also, the results for the activation at 0.1 mg in assay [1] and in assay [2] were 78.1% and 34.1%, respectively. For the same compound, the change in vivo at 0.1 mg/kg in assay [3] (setting [6]) was found to be 30.4%; in assay [3] (setting [7]), 42.1%. The change in vivo at 0.3 mg/kg in assay [3] (setting [8]) came to 38.8%; in assay [3] (setting [9]), 57.5%.
`CC(=O)O.N=C(N)c1ccc(OCc2ccc(CN)cc2)c(C(=O)c2ccccc2)c1` [Compound 9, 4-(4-Aminomethylbenzyloxy)-3-benzoylbenzamidine acetate]: in assay [1], the activation at 0.1 mg is 52.2% and the activation at 0.3 mg is 71.7%. Moreover, in assay [2], the activation at 0.1 mg is 15.5% and the activation at 0.3 mg is 24.3%. In addition, in assay [3] (0.1 mg/kg), the “% decrease in aortic flow” value is recorded as -7.9% and the “% decrease in cardiac contractility” value was -7.1%. Also, in assay [3] (setting [6]), the change in vivo at 0.1 mg/kg stood at 3.9%. Further, the change in vivo at 0.1 mg/kg in assay [3] (setting [7]) turned out to be 12.5%.
Consider `CNC(=N)c1ccc(OCc2ccc(C=CCN)cc2)c(C(=O)c2ccccc2)c1` [Compound 12, 4-[4-(3-amino-1-propenyl)benzyloxy]-3-benzoyl-N-methylbenzamidine dihydrochloride], for which the activation at 0.03 mg worked out at 46.2% in assay [1] and 23.3% in assay [2]. The activation at 0.1 mg in assay [1] worked out at 77.8%; in assay [2], 31.6%. Also, the change in vivo at 0.03 mg/kg stood at 6.1% in assay [3] (setting [4]) and 18.8% in assay [3] (setting [5]). Moreover, the results for the change in vivo at 0.1 mg/kg in assay [3] (setting [6]) and in assay [3] (setting [7]) were 8.7% and 40%, respectively.
As to `N=C(N)c1ccc(OCc2ccc(CCCN)cc2)c(C(=O)c2ccccc2)c1` [Compound 11, 4-[4-(3-Aminopropyl)benzyloxy]-3-benzoylbenzamidine dihydrochloride], the figures for the activation at 0.03 mg in assay [1] and in assay [2] were 48.8% and 32%, respectively. Moreover, the activation at 0.1 mg was 82.5% in assay [1] and 71.4% in assay [2]. Further, the change in vivo at 0.1 mg/kg worked out at 7.5% in assay [3] (setting [6]) and 14.3% in assay [3] (setting [7]).
